Source: patent US6380251B1, “Cyclopentane heptan(ene)oic acid, 2-thiocarbamoyloxy and 2-carbamoyloxy compounds as therapeutic agents” (Allergan Sales, Inc., priority 2000, dated 2002)

Test system: PGF2α-sensitive receptor provisionally termed FPVASC
Experiment: relaxation of smooth muscle of isolated rabbit jugular vein
Assay type: cell-based
Settings: not given
Method: Activity at different prostanoid receptors was measured in vitro in isolated smooth muscle preparations. FP-activity was measured as contraction of the isolated feline iris sphincter. Activity was also measured as relaxation of smooth muscle of isolated rabbit jugular vein a preparation which appears to contain a unique PGF2α-sensitive receptor provisionally termed FPVASC. TP-vasoconstrictor activity was measured as contraction of rings of the isolated rat thoracic aorta.
Many examples also have pronounced activity at the FP receptor, provisionally termed FP associated with the vascular endothelium in the rabbit jugular vein preparation. Since such agents would be vasodilators they have potential in hypertension and any disease where tissue blood perfusion is compromised. Such indications include, but are not limited to, systemic hypertension, angina, stroke, retinal vascular diseases, claudication, Raynauds disease, diabetes, and pulmonary hypertension.

EC50	Structure (SMILES)
11 µM	O=C(CCC/C=C\C[C@@H]1[C@@H](COC(=S)NCc2cccc(Cl)c2)[C@H](O)C[C@@H]1O)NCCO [Example 18, (3-Chlorobenzyl)thiocarbamic acid O-{(1S,2R,3S,5R)-3,5-dihydroxy-2-[(Z)-6-(2-hydroxyethylcarbamoyl)hex-2-enyl]cyclopentylmethyl}ester]
2.91 µM	CCNC(=O)CCC/C=C\C[C@@H]1[C@@H](COC(=S)NCc2cccc(Cl)c2)[C@H](O)C[C@@H]1O [Example 19, (3-Chlorobenzyl)thiocarbamic acid O-[(1S,2R,3S,5R)-2-((Z)-6-ethylcarbamoylhex-2-enyl)-3,5-dihydroxycyclopentylmethyl]ester]
0.274 µM	NC(=O)CCC/C=C\C[C@@H]1[C@@H](COC(=S)NCc2cccc(Cl)c2)[C@H](O)C[C@@H]1O [Example 20, (3-Chlorobenzyl)thiocarbamic acid O-[(1S,2R,3S,5R)-2-((Z)-6-carbamoylhex-2-enyl)-3,5-dihydroxycyclopentylmethyl]ester]
0.003 µM	O=C(O)CCC/C=C\C[C@@H]1[C@@H](COC(=S)NCc2cccc(Cl)c2)[C@H](O)C[C@@H]1O [Example 12, (Z)-7-[(1R,2S,3R,5S)-2-(3-Chlorobenzylthiocarbamoyloxymethyl)-3,5-dihydroxycyclopentyl]hept-5-enoic acid]
0.178 µM	O=C(O)CCC/C=C\C[C@@H]1[C@@H](COC(=S)NCc2cccc(C(F)(F)F)c2)[C@H](O)C[C@@H]1O [Example 14, (Z)-7-[(1R,2S,3R,5S)-3,5-Dihydroxy-2-(3-trifluoromethylbenzylthiocarbamoyloxymethyl)cyclopentyl]hept-5-enoic acid]
2.83 µM	O=C(O)CCC/C=C\C[C@@H]1[C@@H](COC(=O)NCc2cccc(C(F)(F)F)c2)[C@H](O)C[C@@H]1O [Example 13, (Z)-7-[(1R,2S,3R,5S)-3,5-Dihydroxy-2-(3-trifluoromethylbenzylcarbamoyloxymethyl)cyclopentyl]hept-5-enoic acid]

Continued, compound first:

Structure (SMILES)	EC50
O=C(O)CCC/C=C\C[C@H]1C(O)CC(O)[C@@H]1COC(=S)NCc1ccccc1 (stereo in doubt) [Example 9, 7-[2-Benzylthiocarbamoyloxymethyl-3,5-dihydroxycyclopentyl]hept-5-enoic acid]	0.427 µM
O=C(O)CCC/C=C\C[C@H]1C(O)CC(O)[C@@H]1COC(=O)NCc1ccccc1 (stereo in doubt) [Example 6, 7-[2-Benzylcarbamoyloxymethyl-3,5-dihydroxycyclopentyl]hept-5-enoic acid]	14.2 µM
CCCCNC(=S)OC[C@@H]1[C@@H](C/C=C\CCCC(=O)O)[C@@H](O)C[C@H]1O [Example 11, (Z)-7-((1R,2S,3R,5S)-2-Butylthiocarbamoyloxymethyl-3,5-dihydroxycyclopentyl)-hept-5-enoic acid]	0.171 µM
O=C(O)CCC/C=C\C[C@@H]1[C@@H](COC(=O)NCCc2cccs2)[C@H](O)C[C@@H]1O [Example 10, (Z)-7-[(1R,2S,3R,5S)-3,5-Dihydroxy-2-(2-thiophen-2-ylethylcarbamoyloxymethyl)-cyclopentyl]hept-5-enoic acid]	32 µM
O=C(O)CCC/C=C\C[C@H]1C(O)CC(O)[C@@H]1COC(=O)Nc1ccccc1 (stereo partly drawn) [Example 3, (Z)-7-((1R,2S,3R,5S)-3,5-Dihydroxy-2-phenzylcarbamoyloxymethylcyclopentyl)-hept-5-enoic acid]	193 µM

Test system: Dog intraocular pressure
Experiment: Dog intraocular pressure by applanation pneumatonometry
Assay type: in vivo
Settings: dogs, 25 μl to the ocular surface, contralateral eye vehicle, measured before and at 6 hours; FIGS. 3 and 4
Method: The compounds were prepared at the said concentrations in a vehicle comprising 0.1% polysorbate 80 and 10 mM TRIS base. Dogs were treated by administering 25 μl to the ocular surface, the contralateral eye received vehicle as a control. Intraocular pressure was measured by applanation pneumatonometry. Dog intraocular pressure was measured immediately before drug administration and at 6 hours thereafter.

Structure (SMILES)	effect on intraocular pressure
O=C(O)CCC/C=C\C[C@@H]1[C@@H](COC(=S)NCc2cccc(Cl)c2)[C@H](O)C[C@@H]1O [Example 12, (Z)-7-[(1R,2S,3R,5S)-2-(3-Chlorobenzylthiocarbamoyloxymethyl)-3,5-dihydroxycyclopentyl]hept-5-enoic acid]	lowered intraocular pressure
O=C(O)CCC/C=C\C[C@H]1C(O)CC(O)[C@@H]1COC(=S)NCc1ccccc1 (stereo in doubt) [Example 9, 7-[2-Benzylthiocarbamoyloxymethyl-3,5-dihydroxycyclopentyl]hept-5-enoic acid]	lowered intraocular pressure
